Source: patent EP0801527B1 (priority 1995, dated 1996)
Like-named read-outs stand apart in the source and are kept apart here.

Assays:
[1] = system: synaptosomes from the striatal area of rat brain; experiment: [3H]-Dopamine release from striatal synaptosomes (continuous perfusion); format: cell-based, Sprague-Dawley rats; settings: for Emax: Rattus norvegicus; for EC50: rat striatal synaptosomes
Protocol: Dopamine release was measured by preparing synaptosomes from the striatal area of rat brain obtained from Sprague-Dawley rats generally according to the procedures set forth by Nagy et al., J. Neurochem., Vol. 43, pp. 1114-1123 (1984). Striata from 4 rats were homogenized in 2 ml of 0.32M sucrose buffered with 5 mM HEPES (pH 7.5), using a glass-Teflon tissue grinder. The homogenate was diluted to 5 ml with additional homogenization solution and centrifuged at 1,000 x g for 10 min. This procedure was repeated on the new pellet and the resulting supernatant was centrifuged at 12,000 x g for 20 min. A 3 layer discontinuous Percoll gradient consisting of 16 percent, 10 percent and 7.5 percent Percoll in HEPES-buffered sucrose was made with the final pellet dispersed in the top layer. After centrifugation at 15,000 x g for 20 min., the synaptosomes were recovered above the 16 percent layer with a Pasteur pipette, diluted with 8 ml of perfusion buffer (128 mM NaCl, 2.4 mM KCl, 3.2 Mm CaCl2, 1.2 mM KH2PO4, 1.2 mM MgSO4, 25 mM HEPES pH 7.4, 10 mM dextrose, 1 mM ascorbate, 0.01 mM pargyline), and centrifuged at 15,000 x g for 20 min. The new pellet was collected and re-suspended in perfusion buffer. The synaptosome suspension was incubated for 10 min. at 37°C. [^3H]-Dopamine (Amersham, 40-60 Ci/mmol) was added to the suspension to give a final concentration of 0.1 uM, and the suspension was incubated for another 5 min. Using this method, 30 to 90 percent of the dopamine was taken up into the synaptosomes, as determined by scintillation counting following filtration through glass fiber filters soaked with 0.5 percent polyethyleneimine. A continuous perfusion system was used to monitor release following exposure to each ligand. Synaptosomes were loaded onto glass fiber filters (Gelman type A/E). Perfusion buffer was dripped onto the filters (0.2-0.3 ml/min.) and pulled through the filters with a peristaltic pump. Synaptosomes were washed with perfusion buffer for a minimum of 20 min. before addition of the ligand. After the addition of 0.2 ml of a solution containing various concentrations of ligand, the perfusate was collected into scintillation vials at 1 min. intervals and the dopamine released was quantified by scintillation counting. Peaks of radioactivity released above background were summed and the average basal release during that time was subtracted from the total.

[2] = target: T1, muscle-like nicotinic receptors (Homo sapiens, UniProt P02708+P07510+Q07001); experiment: cell-based; format: cell-based; settings: for Emax: TE671/RD, read-out: Muscle Effect
T1 construct: Intact cells on dishes were used for functional studies; endogenous in cells; host or cells: TE671/RD human embryonal rhabdomyosarcoma cells

[3] = target: T2, ganglionic-type neuronal nicotinic receptors (Rattus norvegicus, UniProt P04757+P12392); experiment: cell-based; settings: for Emax: PC-12, read-out: Ganglion Effect
T2 construct: Intact cells on dishes were used for functional studies; endogenous in cells; host or cells: PC12 rat pheochromocytoma cells

[4] = target: T3, high affinity CNS nicotinic receptors (Rattus norvegicus, UniProt P09483+P12390); experiment: biochemical; format: binding, Rats (Sprague-Dawley)
T3 construct: Brain membrane preparations were obtained from brain tissue of either males or females; from tissue; host or cells: rat (Sprague-Dawley) brain without cerebellum, membrane preparation
T3 sequence (P09483 31-630): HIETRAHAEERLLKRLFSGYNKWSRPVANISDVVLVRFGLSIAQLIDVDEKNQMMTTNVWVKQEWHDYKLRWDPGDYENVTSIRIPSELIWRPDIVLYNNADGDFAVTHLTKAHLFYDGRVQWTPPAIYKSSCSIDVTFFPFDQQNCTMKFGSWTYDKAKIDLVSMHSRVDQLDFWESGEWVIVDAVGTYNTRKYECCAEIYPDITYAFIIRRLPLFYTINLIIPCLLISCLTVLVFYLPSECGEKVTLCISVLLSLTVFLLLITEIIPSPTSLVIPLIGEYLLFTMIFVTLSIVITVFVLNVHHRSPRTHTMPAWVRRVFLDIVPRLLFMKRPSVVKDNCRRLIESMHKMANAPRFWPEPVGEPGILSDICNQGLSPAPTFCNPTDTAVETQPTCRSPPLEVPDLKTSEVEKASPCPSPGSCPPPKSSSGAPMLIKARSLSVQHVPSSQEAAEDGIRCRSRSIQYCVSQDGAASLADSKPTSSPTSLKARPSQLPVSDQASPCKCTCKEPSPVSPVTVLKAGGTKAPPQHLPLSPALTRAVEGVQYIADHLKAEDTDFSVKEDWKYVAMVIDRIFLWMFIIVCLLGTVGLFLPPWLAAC
T3 sequence (P12390 25-500): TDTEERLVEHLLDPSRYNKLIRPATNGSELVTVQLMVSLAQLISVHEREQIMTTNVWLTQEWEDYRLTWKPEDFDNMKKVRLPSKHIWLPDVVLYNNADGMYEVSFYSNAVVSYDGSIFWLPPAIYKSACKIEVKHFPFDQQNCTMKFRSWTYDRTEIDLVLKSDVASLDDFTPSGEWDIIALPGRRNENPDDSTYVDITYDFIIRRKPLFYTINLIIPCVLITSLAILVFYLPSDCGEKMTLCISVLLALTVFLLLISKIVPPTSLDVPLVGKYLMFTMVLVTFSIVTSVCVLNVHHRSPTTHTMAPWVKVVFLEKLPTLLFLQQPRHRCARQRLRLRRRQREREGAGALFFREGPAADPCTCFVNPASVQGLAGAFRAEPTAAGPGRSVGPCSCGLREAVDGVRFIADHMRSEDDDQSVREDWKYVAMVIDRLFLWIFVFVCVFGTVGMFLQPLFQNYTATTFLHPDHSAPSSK

T2 sequence (P04757 26-499): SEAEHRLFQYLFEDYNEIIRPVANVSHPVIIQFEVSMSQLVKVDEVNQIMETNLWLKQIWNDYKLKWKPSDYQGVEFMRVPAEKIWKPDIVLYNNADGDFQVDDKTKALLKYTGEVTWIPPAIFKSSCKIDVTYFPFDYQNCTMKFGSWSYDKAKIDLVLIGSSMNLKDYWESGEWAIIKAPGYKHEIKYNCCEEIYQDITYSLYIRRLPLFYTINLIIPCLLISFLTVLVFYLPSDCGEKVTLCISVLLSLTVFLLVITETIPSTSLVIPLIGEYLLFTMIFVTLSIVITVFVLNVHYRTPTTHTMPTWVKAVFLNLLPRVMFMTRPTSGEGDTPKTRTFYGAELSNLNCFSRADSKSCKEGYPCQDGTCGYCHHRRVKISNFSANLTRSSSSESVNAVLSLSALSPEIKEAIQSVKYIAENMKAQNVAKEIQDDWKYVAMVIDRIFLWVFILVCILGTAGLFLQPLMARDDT
T2 sequence (P12392 21-495): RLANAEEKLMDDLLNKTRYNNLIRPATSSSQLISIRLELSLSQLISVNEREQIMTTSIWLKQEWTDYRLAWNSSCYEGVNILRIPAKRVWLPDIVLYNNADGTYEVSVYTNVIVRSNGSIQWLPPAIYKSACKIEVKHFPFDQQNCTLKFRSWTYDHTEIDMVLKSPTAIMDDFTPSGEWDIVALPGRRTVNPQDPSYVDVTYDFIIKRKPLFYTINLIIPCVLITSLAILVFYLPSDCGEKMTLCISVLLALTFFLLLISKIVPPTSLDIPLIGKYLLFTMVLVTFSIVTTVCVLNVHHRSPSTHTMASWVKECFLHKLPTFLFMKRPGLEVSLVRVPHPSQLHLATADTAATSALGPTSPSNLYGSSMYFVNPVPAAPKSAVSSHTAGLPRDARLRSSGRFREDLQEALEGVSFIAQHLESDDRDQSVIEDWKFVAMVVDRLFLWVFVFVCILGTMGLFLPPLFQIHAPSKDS
T1 sequence (P02708 21-457): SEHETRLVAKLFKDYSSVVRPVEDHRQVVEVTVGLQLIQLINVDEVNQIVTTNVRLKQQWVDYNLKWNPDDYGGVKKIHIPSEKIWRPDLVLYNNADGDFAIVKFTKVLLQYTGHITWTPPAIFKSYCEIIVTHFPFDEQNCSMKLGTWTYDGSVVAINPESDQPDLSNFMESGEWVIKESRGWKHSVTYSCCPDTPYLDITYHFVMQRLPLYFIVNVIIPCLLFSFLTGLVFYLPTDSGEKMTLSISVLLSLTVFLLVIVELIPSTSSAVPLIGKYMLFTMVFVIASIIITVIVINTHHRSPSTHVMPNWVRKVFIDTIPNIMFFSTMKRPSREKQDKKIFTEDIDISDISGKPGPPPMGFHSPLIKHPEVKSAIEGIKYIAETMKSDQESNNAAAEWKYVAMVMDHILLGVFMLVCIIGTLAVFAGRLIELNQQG
T1 sequence (P07510 23-517): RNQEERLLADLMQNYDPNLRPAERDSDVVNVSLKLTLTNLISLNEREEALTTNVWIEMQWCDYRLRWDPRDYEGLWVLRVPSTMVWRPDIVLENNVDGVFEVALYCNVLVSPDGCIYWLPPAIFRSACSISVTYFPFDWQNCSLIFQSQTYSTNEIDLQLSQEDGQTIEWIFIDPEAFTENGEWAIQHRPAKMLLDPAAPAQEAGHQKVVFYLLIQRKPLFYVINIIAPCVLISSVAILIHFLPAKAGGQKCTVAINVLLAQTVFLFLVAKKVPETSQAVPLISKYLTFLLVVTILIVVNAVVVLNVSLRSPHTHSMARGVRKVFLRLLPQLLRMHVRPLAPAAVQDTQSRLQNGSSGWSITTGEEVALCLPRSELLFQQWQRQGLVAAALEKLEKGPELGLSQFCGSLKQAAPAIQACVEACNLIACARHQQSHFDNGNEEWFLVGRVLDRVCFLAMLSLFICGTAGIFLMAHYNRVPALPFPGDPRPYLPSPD
T1 sequence (P11230 24-501, further chain): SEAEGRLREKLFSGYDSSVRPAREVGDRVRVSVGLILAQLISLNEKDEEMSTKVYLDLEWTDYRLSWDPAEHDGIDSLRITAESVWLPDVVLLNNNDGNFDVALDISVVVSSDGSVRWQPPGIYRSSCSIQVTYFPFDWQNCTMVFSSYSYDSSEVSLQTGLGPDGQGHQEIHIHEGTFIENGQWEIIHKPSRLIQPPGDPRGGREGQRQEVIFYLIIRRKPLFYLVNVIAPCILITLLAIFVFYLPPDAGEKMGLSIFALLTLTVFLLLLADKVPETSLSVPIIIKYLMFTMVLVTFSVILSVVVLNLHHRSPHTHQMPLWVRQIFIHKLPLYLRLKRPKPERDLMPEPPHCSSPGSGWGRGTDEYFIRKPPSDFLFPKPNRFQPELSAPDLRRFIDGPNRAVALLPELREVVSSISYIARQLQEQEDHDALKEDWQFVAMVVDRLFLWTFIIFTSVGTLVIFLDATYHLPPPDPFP
T1 sequence (Q07001 22-517): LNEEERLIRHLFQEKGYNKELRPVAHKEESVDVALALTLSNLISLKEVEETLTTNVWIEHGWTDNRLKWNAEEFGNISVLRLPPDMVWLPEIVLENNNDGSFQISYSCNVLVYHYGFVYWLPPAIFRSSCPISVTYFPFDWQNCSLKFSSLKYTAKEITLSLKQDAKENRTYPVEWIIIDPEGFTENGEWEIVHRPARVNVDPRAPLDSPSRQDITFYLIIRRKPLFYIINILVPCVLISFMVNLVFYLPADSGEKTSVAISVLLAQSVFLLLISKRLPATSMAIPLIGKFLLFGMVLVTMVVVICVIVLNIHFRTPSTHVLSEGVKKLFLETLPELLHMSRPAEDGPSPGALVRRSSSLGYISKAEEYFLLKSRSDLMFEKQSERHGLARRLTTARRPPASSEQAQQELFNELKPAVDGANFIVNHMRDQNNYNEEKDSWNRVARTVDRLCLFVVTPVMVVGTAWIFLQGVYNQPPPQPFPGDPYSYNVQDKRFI

SMILES | Emax [1] [%] | EC50 [1] [nM] | Emax [3] [%] | Emax [2] [%] | other results
CNCC/C=C/c1cccnc1 [Sample No. 8, (E)-metanicotine, reference compound] | – | – | – | – | Dopamine Release Emax [1]: 80 %nicotine; Muscle Effect [2]: 15 % nicotine
CNCC/C=C/c1cncnc1 [Sample No. 2, (E)-N-methyl-4-(5-pyrimidinyl)-3-butene-1-amine] | 77 | 5800 | 1 | 4 | –
CNCCCCc1cccnc1 [Sample No. 7, N-methyl-(3-pyridinyl)-butane-1-amine] | 72 | – | – | – | Ki [4]: 910 nM
COc1cncc(/C=C/CCN)c1 [Sample No. 3, (E)-4-[3-(5-methoxypyridin)yl] -3-butene-1-amine monofumarate] | 95 | 4000 | 0 | 0 | –
CN1CCC[C@H]1c1cccnc1 [Sample No. C-1, (S)-(-)-nicotine, reference compound] | 100 | 115 | – | – | –
CNCC/C=C\c1cccnc1 [Sample No. 5, (Z) metanicotine] | – | – | – | – | Dopamine Release Emax [1]: 88 %nicotine
NCC/C=C/c1cncnc1 [Sample No. 1, (E)-4-(5-pyrimidinyl)-3-butene-1-amine monofumarate] | 113 | 4360 | – | – | –
CNCCC#Cc1cccnc1 [Sample No. 4, N-Methyl-4-(3-pyridinyl)-3-butyne-1-amine] | 87 | 8350 | – | – | Ki [4]: 58 nM; Ganglion Effect ([3]; pc12 cells): 59 % nicotine; Muscle Effect ([2]; te671/rd cells): 7 % nicotine
CNCC/C=C/c1ccc(C)nc1 [Sample No. 6, (E)-N-methyl-4-[3-(6-methylpyrindin)yl]-3-butene-1-amine] | 60 | 219 | 4 | 2 | –
